Test results taken from PubChem BioAssay (NCI).
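All cell lines were grown in 96-well plates and treated with compound for 48 hours. At the TGI there is no net growth.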

Legend:
Test in all cases: growth of human tumour cells (NCI), 48 h
[1] = test system: HOP-62 NSCLC
[2] = test system: OVCAR-4 ovarian
[3] = test system: SK-MEL-5 melanoma
[4] = test system: SF-268 CNS
[5] = test system: TK-10 renal
[6] = test system: SNB-19 CNS
[7] = test system: KM12 colon
[8] = test system: A549 NSCLC
[9] = test system: NCI-H23 lung
[10] = test system: SF-295 CNS
[11] = test system: MOLT-4 leukemia
[12] = test system: IGROV1 ovarian
[13] = test system: NCI-H226 lung
[14] = test system: HT29 colon
[15] = test system: UACC-62 melanoma
[16] = test system: A498 renal
[17] = test system: SNB-75 CNS
[18] = test system: ACHN renal
[19] = test system: RPMI-8226 leukemia
[20] = test system: UACC-257 melanoma
[21] = test system: U251 CNS
[22] = test system: SW-620 colon
[23] = test system: HCT-15 colon
[24] = test system: OVCAR-3 ovarian
[25] = test system: HL-60(TB) leukemia
[26] = test system: 786-0 renal
[27] = test system: CAKI-1 renal
[28] = test system: PC-3 prostate
[29] = test system: MCF7 breast
[30] = test system: MDA-MB-435
[31] = test system: SK-MEL-28 melanoma
[32] = test system: BT-549 breast
[33] = test system: OVCAR-8 ovarian
[34] = test system: DU-145 prostate
[35] = test system: LOX IMVI melanoma
[36] = test system: RXF 393 renal
[37] = test system: NCI-H522 lung
[38] = test system: HCT-116 colon
[39] = test system: OVCAR-5 ovarian
[40] = test system: SK-OV-3 ovarian
[41] = test system: EKVX NSCLC
[42] = test system: NCI/ADR-RES ovarian
[43] = test system: MDA-MB-231 breast
[44] = test system: K-562 leukemia
[45] = test system: COLO 205 colon
[46] = test system: SF-539 CNS
[47] = test system: M14 melanoma
[48] = test system: SN12C renal
[49] = test system: MDA-N
[50] = test system: T-47D breast
[51] = test system: CCRF-CEM leukemia
[52] = test system: SK-MEL-2 melanoma
[53] = test system: HCC-2998 colon
[54] = test system: UO-31 renal
[55] = test system: HS 578T breast
[56] = test system: HOP-92 NSCLC
[57] = test system: NCI-H460 lung

Measured: TGI

CCOP(=O)(/C=C\n1ccc(=O)[nH]c1=O)OCC
not listed: [53] | [54] | [55] | [56] | [57]
> 100 µM: all other assays above

OC1CSCCSCCCSCCSC1
not listed: [7] | [42] | [51]
> 100 µM: all other assays above
